The test system of one series is Escherichia coli. Kind of series: Antibacterial activity against Escherichia coli JM109 after 24 hrs by microbroth dilution method. In kind it is functional. The settings on record: JM109, 24 h. In general terms: Dilution methods test growth across graded concentrations, often in twofold steps.
The subject of another series is Bacillus. Kind of series: Antibacterial activity against Bacillus proteus ATCC 13315 after 24 hrs by microbroth dilution method. In kind it is functional. Particulars: ATCC 13315, 24 h.
The subject of another series is Pseudomonas aeruginosa. Kind of series: Antibacterial activity against Pseudomonas aeruginosa ATCC 27853 after 24 hrs by microbroth dilution method. The settings on record: ATCC 27853, 24 h. It is filed as functional.
In a further series the test system is Salmonella enterica. In words: Antibacterial activity against Salmonella enterica ATCC 14028 after 24 hrs by microbroth dilution method. Particulars: ATCC 14028, 24 h. In kind it is functional.
In series [1] the test system is Staphylococcus aureus. In words: Antibacterial activity against methicillin-resistant Staphylococcus aureus N315 after 24 hrs by microbroth dilution method. In kind it is functional. Particulars: N315, 24 h.
Series [2] has as its system Staphylococcus aureus. Kind of series: Antibacterial activity against Staphylococcus aureus ATCC 25923 after 24 hrs by microbroth dilution method. It is filed as functional. Particulars: ATCC 25923, 24 h.
A further series relates to Bacillus spizizenii. Kind of series: Antibacterial activity against Bacillus subtilis ATCC 6633 after 24 hrs by microbroth dilution method. In kind it is functional. The settings on record: ATCC 6633, 24 h.
In the next series the test system is Micrococcus luteus. Kind of series: Antibacterial activity against Micrococcus luteus ATCC 4698 after 24 hrs by microbroth dilution method. In kind it is functional. Particulars: NCTC 2665, 24 h.
The test system of another series is Cyberlindnera jadinii. In words: Antifungal activity against Candida utilis ATCC 9950 after 24 hrs by microbroth dilution method. In kind it is functional. Particulars: Williopsis jadinii, ATCC 9950, 24 h.
In a further series the test system is Aspergillus flavus. Kind of series: Antifungal activity against Aspergillus flavus ATCC 204304 after 24 hrs by microbroth dilution method. The settings on record: ATCC 204304, 24 h. It is filed as functional.
For a further series, the system named is Saccharomyces cerevisiae. Kind of series: Antifungal activity against Saccharomyces cerevisiae ATCC 9763 after 24 hrs by microbroth dilution method. Particulars: ATCC 9763, 24 h. In kind it is functional.
A further series has as its system Candida albicans. Kind of series: Antifungal activity against Candida albicans ATCC 10231 after 24 hrs by microbroth dilution method. It is filed as functional. The settings on record: ATCC 10231, 24 h.
The next series concerns Pichia norvegensis. Kind of series: Antifungal activity against Candida mycoderma ATCC 9888 after 24 hrs by microbroth dilution method. In kind it is functional. Particulars: ATCC 9888, 24 h.
Series [3] is described as follows: Ionization constant, pKa of the compound by UV spectroscopic analysis. It is filed as physicochemical.

Our source for the MIC and pKa values is ChEMBL document CHEMBL3603734, “Design and biological evaluation of novel quinolone-based metronidazole derivatives as potent Cu(2+) mediated DNA-targeting antibacterial agents” (Bioorg Med Chem Lett, 2015).

≈ marks a conversion by molar mass, not a printed value.

The term MIC denotes the smallest concentration in the dilution series that meets the test's criterion for growth inhibition. Low values mean a more susceptible organism, high ones a less susceptible organism. For orientation: pKa means the pH at which an ionisable group is half protonated. Read a high pKa as a weaker acid or stronger base. `Cc1nc(N2CCCC2)c([N+](=O)[O-])n1CC(O)CN1CCN(c2cc3c(cc2F)c(=O)c(C(=O)O)cn3C2CC2)CC1` (configuration not stated): the MIC against Escherichia coli came to 64 µg/mL (≈ 110 µM); in the series on Bacillus, 32 µg/mL (≈ 54.8 µM); against Pseudomonas aeruginosa, 2 µg/mL (≈ 3.43 µM); with Salmonella enterica, 32 µg/mL (≈ 54.8 µM); against Staphylococcus aureus [1], 16 µg/mL (≈ 27.4 µM); in the series with Staphylococcus aureus [2] it was 64 µg/mL (≈ 110 µM). In addition, the MIC was 16 µg/mL (≈ 27.4 µM) in the series on Bacillus spizizenii; 128 µg/mL (≈ 219 µM) against Micrococcus luteus; 16 µg/mL (≈ 27.4 µM) with Cyberlindnera jadinii; 32 µg/mL (≈ 54.8 µM) against Aspergillus flavus; 32 µg/mL (≈ 54.8 µM) in the series with Saccharomyces cerevisiae; 64 µg/mL (≈ 110 µM) against Candida albicans. The molecule further came in with an MIC in the series on Pichia norvegensis of 32 µg/mL (≈ 54.8 µM). In series [3], this molecule showed a pKa of 6.72.
For the molecule `Cc1nc(N2CCCCC2)c([N+](=O)[O-])n1CC(O)CN1CCN(c2cc3c(cc2F)c(=O)c(C(=O)O)cn3C2CC2)CC1` (configuration not stated), the MIC against Escherichia coli turned out to be 128 µg/mL (≈ 214 µM); against Bacillus, 128 µg/mL (≈ 214 µM); in the series with Pseudomonas aeruginosa it was 1 µg/mL (≈ 1.67 µM); against Salmonella enterica, 64 µg/mL (≈ 107 µM); in the series on Staphylococcus aureus [1] it was 32 µg/mL (≈ 53.5 µM); against Staphylococcus aureus [2] it was 128 µg/mL (≈ 214 µM). Besides, the MIC in the series on Bacillus spizizenii worked out at 32 µg/mL (≈ 53.5 µM); in the series on Micrococcus luteus, 64 µg/mL (≈ 107 µM); in the series with Cyberlindnera jadinii it was 32 µg/mL (≈ 53.5 µM); in the series on Aspergillus flavus, 8 µg/mL (≈ 13.4 µM); against Saccharomyces cerevisiae, 64 µg/mL (≈ 107 µM); in the series with Candida albicans, 64 µg/mL (≈ 107 µM). This molecule also registered an MIC against Pichia norvegensis of 64 µg/mL (≈ 107 µM). In addition, the pKa in [3] is 6.9.
`CCn1cc(C(=O)O)c(=O)c2cc(F)c(N3CCN(CC(O)Cn4c(C)nc(N5CCCC5)c4[N+](=O)[O-])CC3)cc21` (configuration not stated): the MIC was 128 µg/mL (≈ 224 µM) with Escherichia coli; 64 µg/mL (≈ 112 µM) with Bacillus; 4 µg/mL (≈ 7 µM) with Pseudomonas aeruginosa; 64 µg/mL (≈ 112 µM) with Salmonella enterica; 32 µg/mL (≈ 56 µM) with Staphylococcus aureus [1]; 64 µg/mL (≈ 112 µM) in the series on Staphylococcus aureus [2]. In addition, the MIC in the series on Bacillus spizizenii worked out at 64 µg/mL (≈ 112 µM); against Micrococcus luteus, 64 µg/mL (≈ 112 µM); in the series with Cyberlindnera jadinii it was 32 µg/mL (≈ 56 µM); against Aspergillus flavus, 16 µg/mL (≈ 28 µM); against Saccharomyces cerevisiae, 8 µg/mL (≈ 14 µM); in the series with Candida albicans, 32 µg/mL (≈ 56 µM). This molecule also gave an MIC in the series with Pichia norvegensis of 16 µg/mL (≈ 28 µM). This molecule also had a pKa in series [3] of 6.68.
Turning to `Cc1nc(N2CCCCC2)c([N+](=O)[O-])n1CC(O)CNC1CCN(c2c(F)cc3c(=O)c(C(=O)O)cn(C4CC4)c3c2Cl)C1` (configuration not stated), the MIC is 32 µg/mL (≈ 50.6 µM) in the series on Escherichia coli; 1 µg/mL (≈ 1.58 µM) against Bacillus; 1 µg/mL (≈ 1.58 µM) against Pseudomonas aeruginosa; 16 µg/mL (≈ 25.3 µM) against Salmonella enterica; 2 µg/mL (≈ 3.16 µM) in the series on Staphylococcus aureus [1]; 8 µg/mL (≈ 12.7 µM) against Staphylococcus aureus [2]. Also, the MIC in the series with Bacillus spizizenii is 8 µg/mL (≈ 12.7 µM); against Micrococcus luteus, 16 µg/mL (≈ 25.3 µM); against Cyberlindnera jadinii it was 2 µg/mL (≈ 3.16 µM); in the series on Aspergillus flavus, 4 µg/mL (≈ 6.33 µM); in the series on Saccharomyces cerevisiae, 8 µg/mL (≈ 12.7 µM); against Candida albicans, 4 µg/mL (≈ 6.33 µM). This molecule came in with an MIC in the series with Pichia norvegensis of 8 µg/mL (≈ 12.7 µM). The molecule also registered a pKa in series [3] of 6.69.
On to `OC(Cn1cncn1)(Cn1cncn1)c1ccc(F)cc1F` [FLUCONAZOLE], for which the MIC is 8 µg/mL (≈ 26.1 µM) against Cyberlindnera jadinii; 256 µg/mL (≈ 836 µM) with Aspergillus flavus; 16 µg/mL (≈ 52.2 µM) against Saccharomyces cerevisiae; 1 µg/mL (≈ 3.27 µM) with Candida albicans; 4 µg/mL (≈ 13.1 µM) against Pichia norvegensis.
As to `CCn1cc(C(=O)O)c(=O)c2cc(F)c(N3CCN(CC(O)Cn4c(C)nc(N5CCCCC5)c4[N+](=O)[O-])CC3)cc21` (configuration not stated), the MIC in the series with Escherichia coli amounted to 256 µg/mL (≈ 437 µM); against Bacillus, 128 µg/mL (≈ 219 µM); in the series with Pseudomonas aeruginosa, 4 µg/mL (≈ 6.83 µM); in the series on Salmonella enterica it was 128 µg/mL (≈ 219 µM); against Staphylococcus aureus [1], 64 µg/mL (≈ 109 µM); against Staphylococcus aureus [2], 64 µg/mL (≈ 109 µM). Also, the minimal inhibitory concentration (MIC) against Bacillus spizizenii came to 128 µg/mL (≈ 219 µM); in the series with Micrococcus luteus, 128 µg/mL (≈ 219 µM); against Cyberlindnera jadinii it was 32 µg/mL (≈ 54.6 µM); against Aspergillus flavus, 32 µg/mL (≈ 54.6 µM); in the series on Saccharomyces cerevisiae, 32 µg/mL (≈ 54.6 µM); against Candida albicans it was 32 µg/mL (≈ 54.6 µM). In the series with Pichia norvegensis, this molecule registered an MIC of 128 µg/mL (≈ 219 µM). Besides, in series [3], the pKa was 6.75.
On to `CCn1cc(C(=O)O)c(=O)c2cc(F)c(N3CCNCC3)cc21` [NORFLOXACIN], for which the MIC in the series with Escherichia coli was 2 µg/mL (≈ 6.26 µM); with Bacillus, 8 µg/mL (≈ 25.1 µM); in the series on Pseudomonas aeruginosa it was 4 µg/mL (≈ 12.5 µM); against Salmonella enterica it was 1 µg/mL (≈ 3.13 µM); against Staphylococcus aureus [1], 2 µg/mL (≈ 6.26 µM); with Staphylococcus aureus [2] it was 2 µg/mL (≈ 6.26 µM). In addition, the MIC against Bacillus spizizenii was 1 µg/mL (≈ 3.13 µM); in the series with Micrococcus luteus, 2 µg/mL (≈ 6.26 µM).
For the molecule `Cc1nc(N2CCOCC2)c([N+](=O)[O-])n1CC(O)CN1CCN(c2cc3c(cc2F)c(=O)c(C(=O)O)cn3C2CC2)CC1` (configuration not stated), the MIC against Escherichia coli was 16 µg/mL (≈ 26.7 µM); in the series on Bacillus it was 4 µg/mL (≈ 6.67 µM); in the series with Pseudomonas aeruginosa, 0.5 µg/mL (≈ 0.834 µM); against Salmonella enterica, 8 µg/mL (≈ 13.3 µM); in the series with Staphylococcus aureus [1], 4 µg/mL (≈ 6.67 µM); against Staphylococcus aureus [2], 16 µg/mL (≈ 26.7 µM). The MIC against Bacillus spizizenii turned out to be 8 µg/mL (≈ 13.3 µM); with Micrococcus luteus, 16 µg/mL (≈ 26.7 µM); in the series on Cyberlindnera jadinii, 4 µg/mL (≈ 6.67 µM); against Aspergillus flavus it was 8 µg/mL (≈ 13.3 µM); against Saccharomyces cerevisiae it was 16 µg/mL (≈ 26.7 µM); against Candida albicans, 32 µg/mL (≈ 53.4 µM). In the series on Pichia norvegensis, the MIC turned out to be 128 µg/mL (≈ 213 µM). In [3], this molecule came in with a pKa of 6.77.
